According to patent US20070128217A1 (priority 2003, published 2007):

What was measured:
[1] = system: antibodies in sera from SARS patients (sera 1a, 1b, 2, 6, 37, 62, London, SARS-yellow, SARS-green); assay type: binding, human; set-up: Binding of serum 6 to linear peptides of protein X1 of SARS-CoV Urbani / Binding of serum 37 to linear peptides of protein X1 of SARS-CoV Urbani / Binding of serum 6 to looped/cyclic peptide (PEPSCAN-ELISA) / Binding of serum 37 to looped/cyclic peptide (PEPSCAN-ELISA) / Binding of serum 37 to looped/cyclic peptides of protein X1 of SARS-CoV Urbani / Binding of serum 6 to linear peptides of protein X2 / Binding of serum 37 to linear peptides of protein X2 / Binding of serum 37 to looped/cyclic peptides of protein X2 of SARS-CoV Urbani / Binding of serum 6 to linear peptides of protein M of SARS-CoV Urbani / Binding of serum 37 to linear peptides of protein M of SARS-CoV Urbani / Binding of serum 6 to looped/cyclic peptides of protein M of SARS-CoV Urbani / Binding of serum 37 to looped/cyclic peptides of protein M of SARS-CoV Urbani / Binding of serum 6 to linear peptides of protein X3 of SARS-CoV Urbani / Binding of serum 37 to linear peptides of protein X3 of SARS-CoV Urbani / Binding of serum 37 to looped/cyclic peptides of protein X3 of SARS-CoV Urbani / Binding of serum 6 to linear peptides of protein X4 of SARS-CoV Urbani / Binding of serum 37 to linear peptides of protein X4 of SARS-CoV Urbani / Binding of serum 37 to looped/cyclic peptides of protein X4 of SARS-CoV Urbani / Binding of serum 6 to linear peptides of protein X5 of SARS-CoV Urbani / Binding of serum 37 to linear peptides of protein X5 of SARS-CoV Urbani / Binding of serum 37 to looped/cyclic peptides of protein X5 of SARS-CoV Urbani / Binding of serum 6 to linear peptides of protein N of SARS-CoV Urbani / Binding of serum 37 to linear peptides of protein N of SARS-CoV Urbani / Binding of serum 6 to linear peptide (PEPSCAN-ELISA) / Binding of serum 1a to looped/cyclic peptides of protein N of SARS-CoV Urbani / Binding of serum 1b to looped/cyclic peptides of protein N of SARS-CoV Urbani / Binding of serum 2 to looped/cyclic peptides of protein N of SARS-CoV Urbani / Binding of serum 6 to looped/cyclic peptides of protein N of SARS-CoV Urbani / Binding of serum 37 to looped/cyclic peptides of protein N of SARS-CoV Urbani / Binding of serum 62 to looped/cyclic peptides of protein N of SARS-CoV Urbani / Binding of serum London to looped/cyclic peptides of protein N of SARS-CoV Urbani / Binding of serum SARS-green to looped/cyclic peptides of protein N of SARS-CoV Urbani: unit not given here
[2] = system: control sera (pooled serum of ten healthy LUMC hospital workers; commercial negative donor pooled serum from the Dutch bloodbank); assay type: binding, human; set-up: Binding of Control serum LUMC to linear peptides / Binding of Control serum Blood-bank to linear peptides / Binding of Control serum LUMC to looped peptides / Binding of Control Serum Blood-Bank to Looped peptides / Binding of Control serum LUMC to linear peptides of the protein M of SARS-CoV Urbani / Binding of Control serum Blood-bank to linear peptides of the protein M of SARS-CoV Urbani / Binding of Control serum LUMC to looped peptides of the protein M of SARS-CoV Urbani / Binding of Control Serum Blood-Bank to Looped peptides of the protein M of SARS-CoV Urbani: unit not given here
[3] = system: rabbit serum obtained by immunizing a rabbit with the SARS-CoV strain Frankfurt 1; assay type: binding; set-up: Binding of a rabbit serum to linear peptides / Binding of a rabbit serum to looped peptides / Rabbit serum linear peptides / Rabbit serum looped peptides / Binding of a rabbit serum to linear peptides of protein N of SARS-CoV Urbani (Rabbit serum linear peptides) / Binding of a rabbit serum to looped/cyclic peptides of protein N of SARS-CoV Urbani (Rabbit serum looped peptides): unit not given here
[4] = system: recombinant human anti-SARS-CoV antibody 03-018; assay type: binding; set-up: Binding of antibody 03-018 to linear peptides of the N protein of SARS-CoV Urbani / Binding of antibody 03-018 to looped/cyclic peptides of the N protein of SARS-CoV Urbani: unit not given here

Question: Which “Binding of serum 1a to linear peptides of protein N of SARS-CoV Urbani” value [1] does the source give for KEELRFPRGQGVPIN here?
Answer: Its value is 0.2.

Question: What about the “Binding of serum 1a to looped/cyclic peptides of protein N of SARS-CoV Urbani” value [1] of the same sequence?
Answer: The value was 0.4.

Question: And the “Binding of serum 1b to linear peptides of protein N of SARS-CoV Urbani” value [1]?
Answer: The value was 0.1.

Question: And the “Binding of serum 1b to looped/cyclic peptides of protein N of SARS-CoV Urbani” value [1]?
Answer: Its value is 0.3.

Question: And the “Binding of serum 2 to linear peptides of protein N of SARS-CoV Urbani” value [1]?
Answer: The value was 0.3.

Question: What about the “Binding of serum 2 to looped/cyclic peptides of protein N of SARS-CoV Urbani” value [1] of the same sequence?
Answer: The value was 0.5.

Question: And the “Binding of serum 6 to linear peptides of protein N of SARS-CoV Urbani” value [1]?
Answer: The value was 0.2.

Question: And the “Binding of serum 6 to looped/cyclic peptides of protein N of SARS-CoV Urbani” value [1]?
Answer: The value was 0.4.

Question: And the “Binding of serum 37 to linear peptides of protein N of SARS-CoV Urbani” value [1]?
Answer: Its value is 0.7.

Question: What about the “Binding of serum 37 to looped/cyclic peptides of protein N of SARS-CoV Urbani” value [1] of the same sequence?
Answer: Its value is 0.7.

Question: What about the “Binding of serum 62 to linear peptides of protein N of SARS-CoV Urbani” value [1] of the same sequence?
Answer: Its value is 0.6.

Question: What about the “Binding of serum 62 to looped/cyclic peptides of protein N of SARS-CoV Urbani” value [1] of the same sequence?
Answer: Its value is 0.5.

Question: And the “Binding of serum London to linear peptides of protein N of SARS-CoV Urbani” value [1]?
Answer: Its value is 0.5.

Question: What about the “Binding of serum London to looped/cyclic peptides of protein N of SARS-CoV Urbani” value [1] of the same sequence?
Answer: The value was 0.7.

Question: And the “Binding of serum SARS-green to linear peptides of protein N of SARS-CoV Urbani” value [1]?
Answer: Its value is 0.5.

Question: And the “Binding of serum SARS-green to looped/cyclic peptides of protein N of SARS-CoV Urbani” value [1]?
Answer: The value was 0.4.

Question: What about the “Binding of serum SARS-yellow to linear peptides of protein N of SARS-CoV Urbani” value [1] of the same sequence?
Answer: Its value is 0.5.

Question: And the “Binding of serum SARS-yellow to looped/cyclic peptides of protein N of SARS-CoV Urbani” value [1]?
Answer: The value was 0.6.

Question: And the “Binding of Control Serum Blood-Bank to Looped peptides” value [2]?
Answer: The value was 0.7.

Question: What about the “Binding of Control serum Blood-bank to linear peptides” value [2] of the same sequence?
Answer: The value was 0.8.

Question: And the “Binding of Control serum LUMC to linear peptides” value [2]?
Answer: The value was 0.7.

Question: And the “Binding of Control serum LUMC to looped peptides” value [2]?
Answer: Its value is 0.7.

Question: What about the “Binding of a rabbit serum to linear peptides of protein N of SARS-CoV Urbani (Rabbit serum linear peptides)” value [3] of the same sequence?
Answer: Its value is 0.1.

Question: What about the “Binding of a rabbit serum to looped/cyclic peptides of protein N of SARS-CoV Urbani (Rabbit serum looped peptides)” value [3] of the same sequence?
Answer: The value was 0.6.

Question: What about the “Binding of antibody 03-018 to linear peptides of the N protein of SARS-CoV Urbani” value [4] of the same sequence?
Answer: Its value is 0.1.

Question: And the “Binding of antibody 03-018 to looped/cyclic peptides of the N protein of SARS-CoV Urbani” value [4]?
Answer: Its value is 0.3.

Question: For KELSPRWYFYYLGTG, which “Binding of serum 1a to linear peptides of protein N of SARS-CoV Urbani” value [1] is on record?
Answer: Its value is 0.2.

Question: And the “Binding of serum 1a to looped/cyclic peptides of protein N of SARS-CoV Urbani” value [1]?
Answer: Its value is 0.4.

Question: And the “Binding of serum 1b to linear peptides of protein N of SARS-CoV Urbani” value [1]?
Answer: The value was 0.1.

Question: And the “Binding of serum 1b to looped/cyclic peptides of protein N of SARS-CoV Urbani” value [1]?
Answer: Its value is 0.2.

Question: And the “Binding of serum 2 to linear peptides of protein N of SARS-CoV Urbani” value [1]?
Answer: The value was 0.1.

Question: And the “Binding of serum 2 to looped/cyclic peptides of protein N of SARS-CoV Urbani” value [1]?
Answer: Its value is 0.4.

Question: And the “Binding of serum 6 to linear peptides of protein N of SARS-CoV Urbani” value [1]?
Answer: The value was 0.1.

Question: And the “Binding of serum 6 to looped/cyclic peptides of protein N of SARS-CoV Urbani” value [1]?
Answer: Its value is 0.3.

Question: What about the “Binding of serum 37 to linear peptides of protein N of SARS-CoV Urbani” value [1] of the same sequence?
Answer: Its value is 0.4.

Question: And the “Binding of serum 37 to looped/cyclic peptides of protein N of SARS-CoV Urbani” value [1]?
Answer: Its value is 0.7.

Question: And the “Binding of serum 62 to linear peptides of protein N of SARS-CoV Urbani” value [1]?
Answer: Its value is 0.4.

Question: What about the “Binding of serum 62 to looped/cyclic peptides of protein N of SARS-CoV Urbani” value [1] of the same sequence?
Answer: The value was 0.5.

Question: What about the “Binding of serum London to linear peptides of protein N of SARS-CoV Urbani” value [1] of the same sequence?
Answer: The value was 0.4.

Question: What about the “Binding of serum London to looped/cyclic peptides of protein N of SARS-CoV Urbani” value [1] of the same sequence?
Answer: Its value is 0.4.

Question: And the “Binding of serum SARS-green to linear peptides of protein N of SARS-CoV Urbani” value [1]?
Answer: The value was 0.1.

Question: What about the “Binding of serum SARS-green to looped/cyclic peptides of protein N of SARS-CoV Urbani” value [1] of the same sequence?
Answer: Its value is 0.4.

Question: What about the “Binding of serum SARS-yellow to linear peptides of protein N of SARS-CoV Urbani” value [1] of the same sequence?
Answer: The value was 0.5.

Question: What about the “Binding of serum SARS-yellow to looped/cyclic peptides of protein N of SARS-CoV Urbani” value [1] of the same sequence?
Answer: Its value is 0.3.

Question: What about the “Binding of Control Serum Blood-Bank to Looped peptides” value [2] of the same sequence?
Answer: Its value is 0.7.

Question: And the “Binding of Control serum Blood-bank to linear peptides” value [2]?
Answer: The value was 0.4.

Question: And the “Binding of Control serum LUMC to linear peptides” value [2]?
Answer: The value was 0.4.

Question: What about the “Binding of Control serum LUMC to looped peptides” value [2] of the same sequence?
Answer: Its value is 0.6.

Question: And the “Binding of a rabbit serum to linear peptides of protein N of SARS-CoV Urbani (Rabbit serum linear peptides)” value [3]?
Answer: Its value is 0.0.

Question: And the “Binding of a rabbit serum to looped/cyclic peptides of protein N of SARS-CoV Urbani (Rabbit serum looped peptides)” value [3]?
Answer: The value was 0.4.

Question: And the “Binding of antibody 03-018 to linear peptides of the N protein of SARS-CoV Urbani” value [4]?
Answer: Its value is 0.1.

Question: What about the “Binding of antibody 03-018 to looped/cyclic peptides of the N protein of SARS-CoV Urbani” value [4] of the same sequence?
Answer: The value was 0.3.

Question: Which results are given for KGFYAEGSRGGSQAS?
Answer: Binding of serum 1a to linear peptide (PEPSCAN-ELISA) [1]: 0.2; Binding of serum 1a to looped/cyclic peptides of protein N of SARS-CoV Urbani [1]: 0.3; Binding of serum 1b to linear peptide (PEPSCAN-ELISA) [1]: 0.1; Binding of serum 1b to looped/cyclic peptides of protein N of SARS-CoV Urbani [1]: 0.2; Binding of serum 2 to linear peptide (PEPSCAN-ELISA) [1]: 0.2; Binding of serum 2 to looped/cyclic peptides of protein N of SARS-CoV Urbani [1]: 0.3; Binding of serum 6 to linear peptide (PEPSCAN-ELISA) [1]: 0.2; Binding of serum 6 to looped/cyclic peptides of protein N of SARS-CoV Urbani [1]: 0.2; Binding of serum 37 to linear peptide (PEPSCAN-ELISA) [1]: 0.6; Binding of serum 37 to looped/cyclic peptides of protein N of SARS-CoV Urbani [1]: 0.4; Binding of serum 62 to linear peptide (PEPSCAN-ELISA) [1]: 0.5; Binding of serum 62 to looped/cyclic peptides of protein N of SARS-CoV Urbani [1]: 0.3; Binding of serum London to linear peptide (PEPSCAN-ELISA) [1]: 0.4; Binding of serum London to looped/cyclic peptides of protein N of SARS-CoV Urbani [1]: 0.3; Binding of serum SARS-green to linear peptide (PEPSCAN-ELISA) [1]: 0.2; Binding of serum SARS-green to looped/cyclic peptides of protein N of SARS-CoV Urbani [1]: 0.1; Binding of serum SARS-yellow to linear peptide (PEPSCAN-ELISA) [1]: 0.5; Binding of serum SARS-yellow to looped/cyclic peptides of protein N of SARS-CoV Urbani [1]: 0.1; Binding of Control Serum Blood-Bank to Looped peptides [2]: 0.5; Binding of Control serum Blood-bank to linear peptides [2]: 0.7; Binding of Control serum LUMC to linear peptides [2]: 0.5; Binding of Control serum LUMC to looped peptides [2]: 0.4; Binding of a rabbit serum to linear peptides of protein N of SARS-CoV Urbani (Rabbit serum linear peptides) [3]: 0.1; Binding of a rabbit serum to looped/cyclic peptides of protein N of SARS-CoV Urbani (Rabbit serum looped peptides) [3]: 0.1; Binding of antibody 03-018 to linear peptides of the N protein of SARS-CoV Urbani [4]: 0.1; Binding of antibody 03-018 to looped/cyclic peptides of the N protein of SARS-CoV Urbani [4]: 0.2
